Measured values taken from ChEMBL document CHEMBL5226361, “Marine Sponge-Derived Alkaloid Induces Mitochondrial Dysfunction and Inhibits the PI3K/AKT/mTOR Signaling Pathway against Burkitt's Lymphoma” (J Nat Prod, 2023).
Active and inactive are the calls of the source. No cut-off for these calls is given here.

How the values were obtained:
[1] = Inhibition of PI3K/AKT/mTOR signalling pathway in human Daudi cells assessed as increase in ratio of PI3K phosphorylation to total PI3K protein level at 3 uM incubated for 12 hrs in the presence of YS49 by Western blot analysis; type: cell-based
Daudi [2] = assay: Induction of mitochondrial respiratory chain damage in human Daudi cells assessed as decrease in NDUFV2 protein expression at 1.5 to 3 uM incubated for 48 hrs by Western blot analysis; type: functional, cell-based; details: dose 1.5-3 µM
Raji [3] = assay: Induction of mitochondrial respiratory chain damage in human Raji cells assessed as decrease in NDUFV2 protein expression at 2.5 to 5 uM incubated for 48 hrs by Western blot analysis; type: functional, cell-based; details: dose 2.5-5 µM
Daudi [4] = assay: Induction of cell cycle arrest at G0/G1 phase in human Daudi cells assessed as upregulation of gamma-H2AX protein expression at 0.75 to 3 uM incubated for 24 to 48 hrs by Western blot analysis; type: functional, cell-based; details: dose 0.75-3 µM, time 24-48 hrs
Daudi [5] = assay: Induction of apoptosis in human Daudi cells assessed as downregulation of Mcl-1 expression at 0.75 to 3 uM incubated for 24 hrs by Western blot analysis; type: functional, cell-based; details: dose 0.75-3 µM
Daudi [6] = assay: Induction of mitochondrial dysfunction in human Daudi cells assessed as decrease in ATP-5H protein expression at 1.5 to 3 uM incubated for 48 hrs by Western blot analysis; type: functional, cell-based; details: dose 1.5-3 µM
Daudi [7] = assay: Induction of apoptosis in human Daudi cells assessed as total apoptotic cells at 3 uM incubated for 24 hrs by Annexin-V/PI staining based flow cytometric analysis relative to control; type: functional
Daudi [8] = assay: Induction of cell cycle arrest in human Daudi cells assessed as G2 phase cells at 3 uM incubated for 24 hrs by PI staining based flow cytometry analysis (reference value: 25.92%); type: functional
Daudi [9] = assay: Induction of mitochondrial respiratory chain damage in human Daudi cells assessed as decrease in SDHA protein expression at 1.5 to 3 uM incubated for 48 hrs by Western blot analysis; type: functional, cell-based; details: dose 1.5-3 µM
Raji [10] = assay: Induction of apoptosis in human Raji cells assessed as effect on cleaved caspase-8 protein expression at 1.25 to 5 uM incubated for 24 hrs by Western blot analysis; type: functional, cell-based; details: dose 1.25-5 µM
Raji [11] = assay: Induction of cell cycle arrest at G0/G1 phase in human Raji cells assessed as upregulation of gamma-H2AX protein expression at 1.25 to 5 uM incubated for 24 to 48 hrs by Western blot analysis; type: functional, cell-based; details: dose 1.25-5 µM, time 24-48 hrs
Raji [12] = assay: Induction of apoptosis in human Raji cells assessed as early apoptotic cells at 5 uM incubated for 24 hrs in the presence of YS49 by Annexin V-FITC/PI staining based flow cytometric analysis (reference value: 0.8%); type: functional
Daudi [13] = assay: Induction of apoptosis in human Daudi cells assessed as early apoptotic cells at 3 uM incubated for 24 hrs in the presence of YS49 by Annexin V-FITC/PI staining based flow cytometric analysis (reference value: 1.7%); type: functional
Raji [14] = assay: Induction of apoptosis in human Raji cells assessed as viable cells at 5 uM incubated for 24 hrs by Annexin V-FITC/PI staining based flow cytometric analysis (reference value: 97.8%); type: functional; details: read-out: Activity
Daudi [15] = assay: Induction of apoptosis in human Daudi cells assessed as downregulation of Bcl-xl expression at 0.75 to 3 uM incubated for 24 hrs by Western blot analysis; type: functional, cell-based; details: dose 0.75-3 µM
[16] = Inhibition of PI3K/AKT/mTOR signalling pathway in human Raji cells assessed as increase in ratio of mTOR phosphorylation to total mTOR protein level at 5 uM incubated for 12 hrs in the presence of YS49 by Western blot analysis; type: cell-based
Daudi [17] = assay: Effect on total PI3K protein level in human Daudi cells at 0.75 to 3 uM incubated for 24 hrs by Western blot analysis; type: functional, cell-based; details: dose 0.75-3 µM
Raji [18] = assay: Induction of apoptosis in human Raji cells assessed as viable cells at 5 uM incubated for 24 hrs in the presence of YS49 by Annexin V-FITC/PI staining based flow cytometric analysis (reference value: 97.8%); type: functional; details: read-out: Activity
Raji [19] = assay: Induction of apoptosis in human Raji cells assessed as nuclear condensation incubated for 48 hrs by Hoechst 33258/PI staining based fluorescence microscopic analysis; type: functional, cell-based; details: dose 1.25-5 µM
Raji [20] = assay: Induction of mitochondrial respiratory chain damage in human Raji cells assessed as decrease in CYC1 protein expression at 2.5 to 5 uM incubated for 48 hrs by Western blot analysis; type: functional, cell-based; details: dose 2.5-5 µM
Raji [21] = assay: Antiproliferative activity against human Raji cells assessed as inhibition of cell growth incubated for 48 hrs by CCK-8 assay; type: functional, cell-based
[22] = Inhibition of PI3K/AKT/mTOR signalling pathway in human Raji cells assessed as increase in ratio of PI3K phosphorylation to total PI3K protein level at 5 uM incubated for 12 hrs in the presence of YS49 by Western blot analysis; type: cell-based
Daudi [23] = assay: Induction of apoptosis in human Daudi cells assessed as effect on Bax protein expression at 0.75 to 3 uM incubated for 24 hrs by Western blot analysis; type: functional, cell-based; details: dose 0.75-3 µM
Daudi [24] = assay: Induction of apoptosis in human Daudi cells assessed as viable cells at 3 uM incubated for 24 hrs in the presence of YS49 by Annexin V-FITC/PI staining based flow cytometric analysis (reference value: 97.2%); type: functional; details: read-out: Activity
Raji [25] = assay: Induction of mitochondrial respiratory chain damage in human Raji cells assessed as decrease in SDHA protein expression at 2.5 to 5 uM incubated for 48 hrs by Western blot analysis; type: functional, cell-based; details: dose 2.5-5 µM
[26] = Inhibition of PI3K/AKT/mTOR signalling pathway in human Raji cells assessed as inhibition of PI3K phosphorylation incubated for 24 hrs by Western blot analysis; type: cell-based; details: dose 1.25-5 µM
Daudi [27] = assay: Induction of cell cycle arrest in human Daudi cells assessed as accumulation of cells at G0/G1 phase at 3 uM incubated for 24 hrs by PI staining based flow cytometry analysis (reference value: 24.28%); type: functional
Raji [28] = assay: Induction of apoptosis in human Raji cells assessed as downregulation of Mcl-1 expression at 1.25 to 5 uM incubated for 24 hrs by Western blot analysis; type: functional, cell-based; details: dose 1.25-5 µM
Daudi [29] = assay: Induction of apoptosis in human Daudi cells assessed as late apoptotic cells at 3 uM incubated for 24 hrs by Annexin V-FITC/PI staining based flow cytometric analysis (reference value: 0.0%); type: functional
Daudi [30] = assay: Downregulation of c-Myc expression level in human Daudi cells incubated for 24 hrs by Western blot analysis; type: functional, cell-based; details: dose 0.75-3 µM
Daudi [31] = assay: Antiproliferative activity against human Daudi cells assessed as inhibition of cell growth incubated for 48 hrs by CCK-8 assay; type: functional, cell-based
Raji [32] = assay: Induction of cell cycle arrest in human Raji cells assessed as G2 phase cells at 5 uM incubated for 48 hrs by PI staining based flow cytometry analysis (reference value: 10.06%); type: functional
[33] = Inhibition of PI3K/AKT/mTOR signalling pathway in human Daudi cells assessed as inhibition of mTOR phosphorylation incubated for 24 hrs by Western blot analysis; type: cell-based; details: dose 0.75-3 µM
Raji [34] = assay: Induction of mitochondrial oxidative damage in human Raji cells assessed as increase in intracellular mitochondrial superoxide generation at 5 uM incubated for 1 to 6 hrs by MitoSOX red dye based flow cytometric analysis; type: functional, cell-based; details: time 1-6 hrs
Daudi [35] = assay: Induction of apoptosis in human Daudi cells assessed as viable cells at 3 uM incubated for 24 hrs by Annexin V-FITC/PI staining based flow cytometric analysis (reference value: 97.2%); type: functional; details: read-out: Activity

IC50 (Raji [21]): 2070 nM
IC50 (Daudi [31]): 3.48 µM
SMILES: COc1c(OC)c2c3c(nccc3c1-c1cc(C)cc(C)c1)C(c1cc(C)cc(C)c1)=CN2
inhibition [1]: inactive
Activity (Daudi [2]): Active
Activity (Raji [3]): Active
Activity (Daudi [4]): Active
Activity (Daudi [5]): Active
Activity (Daudi [6]): Active
Activity (Daudi [7]): 21.6%
Activity (Daudi [8]): 20.27%
Activity (Daudi [9]): Active
Activity (Raji [10]): inactive
Activity (Raji [11]): Active
Activity (Raji [12]): 11.2%
Activity (Daudi [13]): 16.7%
viability at 5 µM (Raji [14]): 56.2%
Activity (Daudi [15]): Active
inhibition [16]: inactive
Activity (Daudi [17]): inactive
viability at 5 µM (Raji [18]): 67%
Activity (Raji [19]): Dose-Dependent Effect
Activity (Raji [20]): Active
inhibition [22]: inactive
Activity (Daudi [23]): inactive
viability at 3 µM (Daudi [24]): 80.2%
Activity (Raji [25]): Active
inhibition [26]: Dose-Dependent Effect
Activity (Daudi [27]): 49.7%
Activity (Raji [28]): Active
Activity (Daudi [29]): 5.4%
Activity (Daudi [30]): Dose-Dependent Effect
Activity (Raji [32]): 9.61%
inhibition [33]: Dose-Dependent Effect
Activity (Raji [34]): Active
viability at 3 µM (Daudi [35]): 72.7%
